What was measured:
[1] = tested on: genes associated with erythropoiesis; test: RNA-sequencing of spleen and PBMC's of treated mice; format: in vivo; details: for transcriptional signatures of erythropoiesis: day 7 after rhGAA initiation, rhGAA in conjunction with low-dose methotrexate
Method: Animals were sacrificed on day 7 after rhGAA initiation. Blood was collected by terminal retro-orbital bleeds as described above. Whole blood diluted 1 part in 2 with PBS was layered over Ficoll for the separation of peripheral blood mononuclear cells (PBMC's). Spleens were prepared into single-cell suspension between glass slides. Samples were treated for RBC lysis (BD Pharm Lyse). […] The RNA integrity number (RIN) was evaluated. on an Agilent 2100 bioanalyzer with the RNA 6000 nano kit (Agilent) or RNA 6000 pica kit (Agilent). RNA amplification was performed with the SMARTER™ PCR cDNA Synthesis Kit (Clonetech). Detection of sequencing fragments was performed on the Illumina HiSeq2000 with Illumina sequencing kits. RNA-seq data sets were filtered to remove adaptors and low-quality, reads and assessed for differential expression with a fold change of 2 and p value≤0.05. Differentially expressed genes were annotated and examined through NextBio biological data mining software (Illumina).

[2] = tested on: proteins of erythropoiesis related pathways (transferrin receptor 1, transferrin); test: LC/MS protein mass spectrometry of spleen of treated mice; format: in vivo; details: day 7, rhGAA with vs without transient low-dose methotrexate
Method: (§1) C57BL/6 (Jackson Laboratory) or C57BL/6NTac (Taconic Biosciences, Inc.) female mice between S and 12 weeks of age were housed and maintained in accordance with the Guide for the Care and Use of Laboratory Animals, under the American Association for Accreditation of Laboratory Animal Care. The Institutional Animal Care and Use Committee approved all animal procedures. […] Subsequent weekly doses of rhGAA (up to 16 weeks) were given 15 minutes after prophylactic intraperitoneal administration of 30 mg/kg diphenhydramine (West-ward Pharmaceutical). The vehicle control or formulation buffer (FB) for rhGAA. was administered similarly to reconstituted rhGAA. Blood was collected by retro-orbital Heeds from anesthetized mice or by terminal bleeds into EDTA anticoagulant Capiject micro collection tubes (Terumo) on wet ice. […]
Blood was collected by terminal retro-orbital bleeds as described above followed by separation of plasma and PBC by centrifugation. […] Data was analyzed by Progenesis QI for Proteomics (Nonlinear Dynamics) for peak detection. […] Protein quantitation was performed through Progenesis QI for Proteomics. Fold change and p-values were calculated from the average normalized protein abundance data for each experimental group. […] Data were analyzed for enrichment scores in GO processes and other biological categories in MetaCore (Thomson Reuters).

[3] = Spleen weight and spleen cellularity; format: in vivo, mice; details: day 7; rhGAA concurrent with a single cycle of low-dose methotrexate vs rhGAA alone
Method: as §1
Anti-mouse antibodies used for flow cytometry include BioLegend antibodies PE-Ter-119 (catalog 116208), PerCP-Cy5.5-CD71 (catalog 113816), PE-Cy7-IgM (catalog 406516), Pacific Blue (PB)-CD86 (catalog 105022) and allophycocyanin-CD45 (catalog 103116). […] Live/dead discrimination was determined by staining with BioLegend Zombie Aqua Fixable Visability Kit. […] Cytometry data was analyzed on Floyd( )software version 10 (FlowJo, LLC). Absolute numbers of cell population were calculated from CountBright Absolute Counting Beads (ThermoFisher Scientific). […]

[4] = tested on: total RBCs (Ter-119+) and immature, nucleated RBCs (Ter-119+CD71+); test: Flow cytometry of erythroid cells in spleen; format: in vivo, mice
Method: (§2) C57BL/6 (Jackson Laboratory) or C57BL/6NTac (Taconic Biosciences, Inc.) female mice between S and 12 weeks of age were housed and maintained in accordance with the Guide for the Care and Use of Laboratory Animals, under the American Association for Accreditation of Laboratory Animal Care. The Institutional Animal Care and Use Committee approved all animal procedures. […] Subsequent weekly doses of rhGAA (up to 16 weeks) were given 15 minutes after prophylactic intraperitoneal administration of 30 mg/kg diphenhydramine (West-ward Pharmaceutical). The vehicle control or formulation buffer (FB) for rhGAA. was administered similarly to reconstituted rhGAA. Blood was collected by retro-orbital Heeds from anesthetized mice or by terminal bleeds into EDTA anticoagulant Capiject micro collection tubes (Terumo) on wet ice. Spleens were prepared into single-cell suspension between glass slides with or without RBC lysis. Bone marrow was collected from a single femur on wet ice.
(§3) Anti-mouse antibodies used for flow cytometry include BioLegend antibodies PE-Ter-119 (catalog 116208), PerCP-Cy5.5-CD71 (catalog 113816), PE-Cy7-IgM (catalog 406516), Pacific Blue (PB)-CD86 (catalog 105022) and allophycocyanin-CD45 (catalog 103116). Antibodies from BD Biosciences include FITC-CD44 (catalog 553133), allophycocyanin-CD3 (catalog 550035), allophycocyanin-CD19 or allophycocyanin-Cy7-CD19 (catalog 557655 and 550992), FITC-CD1d (catalog 553843), FITC-CD23 (catalog 553138) and allophycocyanin-Cy7-CD3, (catalog 557596). Live/dead discrimination was determined by staining with BioLegend Zombie Aqua Fixable Visability Kit. Samples were run on a BD FACS Canto II (BD Biosciences) and acquired with BD FACSDiva software. Cytometry data was analyzed on Floyd( )software version 10 (FlowJo, LLC). Absolute numbers of cell population were calculated from CountBright Absolute Counting Beads (ThermoFisher Scientific). Cell types assessed include total RBCs (Ter-119^+), immature, nucleated RBCs (Ter-119^+, CD71^+), mature RBCs (Ter-119^+, […]), proerythrohlasts (Ter-119^intermediate, CD44^high), basophilic erythroblasts (Ter-119^+, CD44^highFSC^high), polychromatic erythroblasts (Ter-119^+, CD44^intermediateFSC^intermediate), orthochromatic erythroblasts and reticulocytes (Ter-119^+, CD44^intermediateFSC^low), mature red blood cells (Ter-119^+, CD44^lowFSC^low), total activated B cells (CD19^+CD86^+), activated follicular B cells (CD19^+, IgM^low/high CD23^+, CD86^+), activated marginal zone B cells (CD19^+, IgM^high CD23^−, CD86^+), and B10 regulatory B cells (CD19^+, CD1d^highCD5^+) (Allman et. al., 2004: Chen et. al., 2009; Koulnis et. al., 2011; Joly et. al., 2014).

[5] = tested on: total RBCs (Ter-119+) and immature, nucleated RBCs (Ter-119+CD71+); test: Flow cytometry of erythroid cells in blood; format: in vivo, mice
Method: as §2, §3

[6] = Hematology: CBC and reticulocyte count on Sysmex XT2000iV; format: in vivo, mice; details: blood; 7 days after rhGAA initiation; groups with transient low-dose methotrexate (rhGAA or FB)
Method: as §2
Samples were collected by retro-orbital bleed into EDTA anticoagulant Capiject micro collection tubes as described above and stored at 2-8° C. for no longer than 72 hours. CBC, WBC differential analysis and reticulocyte count were performed on Sysmex XT2000iV (Sysmex). Histology, immunohistochemistry (IHC)

[7] = tested on: total RBCs (Ter-119+) and immature, nucleated RBCs (Ter-119+CD71+); test: Flow cytometry of erythroid cells in bone marrow; format: in vivo, mice
Method: as §2, §3

[8] = tested on: erythroid ankyrin and glycophorin C; test: Tissue mass spectrometry imaging (tMSI) of spleen; format: in vivo, mice; details: 7 days after rhGAA initiation, methotrexate given together with rhGAA or FB
Method: Fresh spleen samples for tMSI were collected in 10% gelatin (Alfa Aesar catalog J62699), frozen en bloc, cut into […] sections, and deposited on indium tin oxide ([…]) glass slides. ITO glass slides were coated with matrix-assisted laser desorption/ionization (MALDI) matrix (α-cyano-4-hydroxycinnamic acid) for tMSI. Mass spectrometry imaging was performed with AB Sciex 4800 MALDI-TOF/TOF, Autoflex MALDI-TOF/TOF and 7T SolariX MALDI-FTICR mass spectrometers. The imaging data sets were analyzed with TissueView, flexlmaging, or Multimaging 1.1 (ImaBiotech).

[9] = tested on: anti-rhGAA IgG antibody; test: Serum anti-rhGAA antibody titers by ELISA, dosed control mice; format: in vivo; details: high outlier not removed (data not shown)
Method: as §2
Quantitation of anti-rhGAA antibody titers from mouse serum was measured by ELBA as previously described (holy, Martin et. al. 2014). […] The reaction was stopped by addition of 1 N HCl and absorbance was immediately measured at 450/650 nm on a SpectraMax M2 (Molecular Devices). End-point titers were derived from the reciprocal of the sample dilution resulting in an absorbance value of 0.2.

[10] = tested on: anti-rhGAA IgG antibody; details: historical data; rhGAA with transient low-dose methotrexate ITI regimen vs rhGAA alone; cited from earlier work
[11] = day 2, CD44/FSC gating, with rhGAA vs rhGAA alone
[12] = day 2, with rhGAA vs rhGAA alone
[13] = day 7, CD44/FSC gating, with rhGAA vs rhGAA alone
[14] = day 7, with rhGAA vs rhGAA alone
[15] = day 9, with rhGAA vs rhGAA alone
[16] = day 4, with rhGAA vs rhGAA alone
[17] = day 4, CD44/FSC gating, with rhGAA vs rhGAA alone
[18] = day 5, with rhGAA vs rhGAA alone
[19] = day 7 and 9, with rhGAA vs rhGAA alone
[20] = day 9, CD44/FSC gating, with rhGAA vs rhGAA alone

CN(Cc1cnc2nc(N)nc(N)c2n1)c1ccc(C(=O)N[C@@H](CCC(=O)O)C(=O)O)cc1 [methotrexate]
transcriptional signatures of erythropoiesis ([1]; PBMC's): upregulation of transcriptional signatures of erythropoiesis
TfR1 in the transcriptional data set ([1]; day 7, rhGAA and low-dose methotrexate vs rhGAA alone): upregulation
transcriptional signatures of erythropoiesis ([1]; spleen): upregulation of transcriptional signatures of erythropoiesis
transferrin protein level [2]: upregulation
transferrin receptor 1 protein level [2]: upregulation
spleen cellularity by flow cytometry [3]: significantly greater
spleen weight [3]: significantly enlarged
day of peak enrichment of immature, nucleated RBCs [4]: 7 days
time to significant reduction in immature, nucleated RBCs and mature RBCs ([4]; after the first administration of low-dose methotrexate): ≤ 24 h
all stages of early erythroid cells (proerythroblasts, basophilic, polychromatic, orthochromatic erythroblasts and reticulocytes) [4, 11]: significantly diminished
mature RBCs [4, 11]: significantly reduced
immature, nucleated RBCs (Ter-119+CD71+) [4, 12]: nearly complete reduction
total erythroid cells (Ter-119+) [4, 12]: significant reduction
erythroid cells, difference between groups ([4]; day 6, with rhGAA vs rhGAA alone): No differences
mature RBCs [4, 13]: no differences
proerythroblasts, basophilic, polychromatic and orthochromatic erythroblasts and reticulocytes [4, 13]: significant enrichment
immature, nucleated RBCs (Ter-119+CD71+) [4, 14]: significant expansion
total erythroid cells (Ter-119+) [4, 14]: large and significant enrichment
immature, nucleated RBCs (Ter-119+CD71+) [4, 15]: smaller but significant enrichment
total erythroid cells (Ter-119+) [4, 15]: smaller but significant enrichment
erythroid response ([4]; transient low-dose methotrexate alone (with FB)): mimicked that of the group treated with transient low-dose methotrexate together with rhGAA
basophilic erythroblasts, orthochromatic erythroblasts, reticulocytes and mature red blood cells [5, 11]: small but significant reduction
immature, nucleated RBCs [5, 12]: significant depletion
total RBCs [5, 12]: significant depletion
immature, nucleated RBCs [5, 16]: nearly absent
immature, nucleated RBCs [5, 13]: no changes
mature RBCs [5, 13]: significant reduction
total RBCs [5, 14]: significantly reduced
immature, nucleated RBCs ([5]; day 7, with rhGAA vs rhGAA alone, Ter-119/CD71 gating): significantly enriched
immature, nucleated RBCs [5, 15]: significantly enriched
total RBCs [5, 15]: significantly enriched
immature, nucleated RBCs ([5]; day 14, with rhGAA vs rhGAA alone): small but significant enrichment
enrichment of immature, nucleated RBCs ([5]; day 28, with rhGAA vs rhGAA alone): absent
total RBCs ([5]; methotrexate alone vs vehicle control): no observed differences
Hemoglobin content [6]: significantly reduced
Total RBC numbers (CBC) [6]: significantly reduced
frequency and numbers of mature reticulocytes [6]: no observed differences
frequency of the immature reticulocyte fraction (IRF) [6]: significantly enriched
hematocrit [6]: significantly reduced
all stages of early erythroid cells [7, 17]: significant depletion
mature RBCs [7, 17]: no statistically significant differences
immature, nucleated RBCs [7, 16]: significantly reduced
total RBCs [7, 16]: no Differences
all erythroid cell stages, including early and mature RBCs ([7]; day 5, CD44/FSC gating, with rhGAA vs rhGAA alone): Depletion
immature, nucleated RBCs [7, 18]: significantly reduced
total RBCs [7, 18]: significantly reduced
mature RBCs [7, 13]: significantly reduced
proerythroblasts and polychromatic erythroblasts [7, 13]: small but significant enrichment
immature, nucleated RBCs [7, 19]: no differences
total RBCs [7, 19]: no differences
mature RBCs [7, 20]: no differences
proerythroblasts and polychromatic erythroblasts [7, 20]: small but significant enrichment
erythroid ankyrin signal in 10 μM spleen sections [8]: diminished
glycophorin C signal in 10 μM spleen sections [8]: diminished
rhGAA titers and AUC, difference between dosed control groups [9]: no differences
rhGAA titers and AUC [10]: significantly reduced

rhGAA: recombinant human acid-α-glucosidase, enzyme replacement therapy used to treat Pompe disease
erythroid ankyrin signal in 10 μM spleen sections [8]: evenly distributed across the spleen
glycophorin C signal in 10 μM spleen sections [8]: evenly distributed across the spleen
